Here are results for four compounds from patent publication US20010020029A1, “New multidose vial formulations for administering endo-N-(9-methyl-9-azabicyclo[3.3.1]non-3-yl)-1-methyl-1H- indazole-3-carboxamide hydrochloride” (SmithKline Beecham p.l.c., priority 1998, published 2001).

Data set [1] has as its system bacteria, yeasts and molds. Put plainly: USP test for preservative efficacy (overall). The data set is classed as cell-based. The settings on record: 1% w/w, full vials, at the time of manufacture. As for the experimental part: The target pH of the multidose vial is 6 and limits of 5 to 7. […] Efficacy of the preservative was therefore assessed over the lower pH range 4 to 6. Vials prepared at pH4, 5 and 6 were tested for preservative efficacy according to the USP XXII 1990—“Antimicrobial Preservative Effectiveness.”
For bacteria, the acceptance criteria require that the number of organisms per mL is reduced by a factor of not less than 10^3 in 14 days and there is no increase thereafter. All three batches met these criteria for P aeruginosa, S. aureus and E. coli.
All three batches met this criterion for C. albicans and A. niger.
In summary, vials prepared at pH4, 5 and 6 all pass the USP test for preservative efficacy.

Data set [2] concerns gram-positive and gram-negative bacteria, yeasts and molds. The settings on record: cited from earlier work; for efficacy against gram-positive and gram-negative bacteria, yeasts and molds: over the pH range 5-7.
The nature of data set [3]: Stability of preservative systems to autoclave (placebo solutions, pH6, 121° C.). The format is physicochemical. The settings on record: for Content after 15 mins (% of initial): autoclaved 15 minutes at 121° C.; for Content after 15 mins (% of initial) / Contents after 60 mins (% of initial): pH6; for Contents after 60 mins (% of initial): autoclaved 60 minutes at 121° C.; for Initial content: placebo solution pH6, before autoclaving; for stability to autoclaving (in words): up to 60 minutes at 121° C.; for Area percent for the unknown peak at 15 mins / Content at 15 mins (percentage of total peak area): autoclaved 15 mins; for Area percent for the unknown peak at 60 mins / Content at 60 mins (percentage of total peak area): autoclaved 60 mins; for Area percent for the unknown peak, initial / Initial content (percentage of total peak area): before autoclaving; for Content at 15 mins (percentage of total peak area) / Content at 60 mins (percentage of total peak area) / Initial content (percentage of total peak area): single paraben system, area normalisation. As for the experimental part: The five preservative systems were assessed for stability to the autoclave process. Placebo solutions were prepared at pH6, filled into 2 ml glass vials and autoclaved for 15 and 60 minutes at 121° C. A cycle time of 60 minutes was selected to mimic the most extreme conditions to which a vial on the outside of a full autoclave load could be subjected to. Solutions were prepared at pH6 since this was the target pH of the multidose dose formulation. The early experiments were performed using 2 ml flint glass vials and West #1816 Teflon faced, bromobutyl rubber stopper.
External standards of the parabens could not be prepared due to their poor aqueous solubility. The results were therefore determined by are normalization, whereby peak areas are expressed as a percentage of the total peak area of the chromatograph.
NOTE: The results are expressed as percentage of total peak area determined by area normalisation.
Area percent for the unknown peak

Data set [4] in a line: Stability of meta-cresol formulation to autoclaving. The data set is classed as physicochemical. The settings on record: autoclave cycle. On the procedure:
To investigate this phenomenon further, the stability during autoclaving experiment was repeated on samples of the meta-cresol formulation. The degradation product content increased from 0.05% before autoclaving to 0.53% at 15 minutes then 0.93% at 60 minutes. […] Meta-cresol was therefore rejected as a possible preservative.

Marks after values point to notes of the source that are not given here.

As for `OCc1ccccc1` [Benzyl Alcohol, Benzyl alcohol], the antimicrobial preservative efficacy result in data set [1] is reported as “efficacious”. For the same compound, in data set [2] (literature), the “efficacy as a function of pH” value is recorded as “decreases with increasing pH above pH5”. The “efficacy against gram-positive and gram-negative bacteria, yeasts and molds” value in data set [2] was “moderate efficacy”. In addition, in data set [3], the “Content after 15 mins (% of initial)” value was 100 % of initial, the “Contents after 60 mins (% of initial)” value is 100 % of initial, the Initial content turned out to be 10.0 mg/mL and the “stability to autoclaving (in words)” value was “good stability with no change in preservative content”.
As to `Cc1cccc(O)c1` [Meta-Cresol, Meta-cresol], the “compatibility with granisetron hydrochloride” value in data set [4] was “incompatible”. In data set [2], the “efficacy against gram-positive and gram-negative bacteria, yeasts and molds” value is “good efficacy”. Also, in data set [3], the “Content after 15 mins (% of initial)” value was 100 % of initial, the “Contents after 60 mins (% of initial)” value is 100 % of initial, the Initial content amounted to 2.6 mg/mL and the “stability to autoclaving (in words)” value is recorded as “good stability with no change in preservative content”.
As to `COC(=O)c1ccc(O)cc1` [Methyl-Parabens, Methyl paraben], in data set [3], the “Area percent for the unknown peak at 15 mins” value is on record as “(3.7%)*”; the “Area percent for the unknown peak at 60 mins” value is “(6.5%)*”; the “Area percent for the unknown peak, initial” value is recorded as “(0.2%)*”; the “Content at 15 mins (percentage of total peak area)” value amounted to 96.3%. In addition, in data set [3], the “Content at 60 mins (percentage of total peak area)” value amounted to 93.5% and the “Initial content (percentage of total peak area)” value is reported as 99.8%.
Turning to `CCCOC(=O)c1ccc(O)cc1` [Propyl Parabens, Propyl paraben], in data set [3], the “Area percent for the unknown peak at 15 mins” value is 1.6%; the “Area percent for the unknown peak at 60 mins” value came out at 2.7%; the “Area percent for the unknown peak, initial” value worked out at 0.6%; the “Content at 15 mins (percentage of total peak area)” value is on record as 98.4%. Besides, in data set [3], the “Content at 60 mins (percentage of total peak area)” value came out at 97.2% and the “Initial content (percentage of total peak area)” value was determined as 99.4%.
